Test results reported in PubChem BioAssay AID1845213 (Molecular Pharmacology Branch, DTP, NCI, 2023).

System: NCI-H841 complex tumor spheroid viability
Assay: Anticancer human tumor NCI-H841 cell line growth inhibition;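 note: spheroids exposed to compounds for 7 days before readout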;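 for viability, T/C: 100% = DMSO vehicle control wells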
Conditions: for IC50: curve of first compound; for viability, T/C: stronger effect = lower value
Method in brief: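 Complex spheroids of malignant cells with endothelial cells and mesenchymal stem cells; agents alone or combined, from near clinical Cmax (or 10 microM if unknown) down in half-log steps, 0.25% DMSO final.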

[1] = second compound 30 pM, first compound 0.0949 µM
[2] = second compound 30 pM, first compound 0.3 µM
[3] = second compound 30 pM, first compound 0.949 µM
[4] = second compound 30 pM, first compound 3 µM
[5] = second compound 94.9 pM, first compound 0.0949 µM
[6] = second compound 94.9 pM, first compound 0.3 µM
[7] = second compound 94.9 pM, first compound 0.949 µM
[8] = second compound 94.9 pM, first compound 3 µM
[9] = second compound 0.0003 µM, first compound 0.0949 µM
[10] = second compound 0.0003 µM, first compound 0.3 µM
[11] = second compound 0.0003 µM, first compound 0.949 µM
[12] = second compound 0.0003 µM, first compound 3 µM
[13] = second compound 0.000949 µM, first compound 0.0949 µM
[14] = second compound 0.000949 µM, first compound 0.3 µM
[15] = second compound 0.000949 µM, first compound 0.949 µM
[16] = second compound 0.000949 µM, first compound 3 µM
[17] = second compound 0.003 µM, first compound 0.0949 µM
[18] = second compound 0.003 µM, first compound 0.3 µM
[19] = second compound 0.003 µM, first compound 0.949 µM
[20] = second compound 0.003 µM, first compound 3 µM

SMILES: CC(C)n1c(=O)n(C)c2cnc3cc(F)c(-c4ccc(OCCCN5CCCCC5)nc4)cc3c21 + CC[C@@]1(O)C(=O)OCc2c1cc1n(c2=O)Cc2cc3c(CN(C)C)c(O)ccc3nc2-1
- IC50 (second compound 0.003 µM): < 31.6 nM
- IC50 (second compound 0.00949 µM): < 31.6 nM
- IC50 (second compound 0.03 µM): < 31.6 nM
- IC50 (second compound 0.0949 µM): < 31.6 nM
- IC50 (second compound 0.3 µM): < 31.6 nM
- viability, T/C (second compound 0.003 µM, first compound 0.0316 µM): 47%
- viability, T/C (second compound 0.003 µM, first compound 0.1 µM): 51.3%
- viability, T/C (second compound 0.003 µM, first compound 0.316 µM): 56.6%
- viability, T/C (second compound 0.003 µM, first compound 1 µM): 63.5%
- viability, T/C (second compound 0.003 µM, first compound 3.16 µM): 65.1%
- viability, T/C (second compound 0.003 µM, first compound 10 µM): 43.2%
- viability, T/C (second compound 0.00949 µM, first compound 0.0316 µM): 4.68%
- viability, T/C (second compound 0.00949 µM, first compound 0.1 µM): 4.13%
- viability, T/C (second compound 0.00949 µM, first compound 0.316 µM): 6.57%
- viability, T/C (second compound 0.00949 µM, first compound 1 µM): 6.6%
- viability, T/C (second compound 0.00949 µM, first compound 3.16 µM): 10.3%
- viability, T/C (second compound 0.00949 µM, first compound 10 µM): 7.04%
- viability, T/C (second compound 0.03 µM, first compound 0.0316 µM): 1.24%
- viability, T/C (second compound 0.03 µM, first compound 0.1 µM): 1.19%
- viability, T/C (second compound 0.03 µM, first compound 0.316 µM): 1.09%
- viability, T/C (second compound 0.03 µM, first compound 1 µM): 1.3%
- viability, T/C (second compound 0.03 µM, first compound 3.16 µM): 1.9%
- viability, T/C (second compound 0.03 µM, first compound 10 µM): 2.19%
- viability, T/C (second compound 0.0949 µM, first compound 0.0316 µM): 2.12%
- viability, T/C (second compound 0.0949 µM, first compound 0.1 µM): 1.53%
- viability, T/C (second compound 0.0949 µM, first compound 0.316 µM): 1.21%
- viability, T/C (second compound 0.0949 µM, first compound 1 µM): 1.06%
- viability, T/C (second compound 0.0949 µM, first compound 3.16 µM): 1.07%
- viability, T/C (second compound 0.0949 µM, first compound 10 µM): 1.41%
- viability, T/C (second compound 0.3 µM, first compound 0.0316 µM): 2.29%
- viability, T/C (second compound 0.3 µM, first compound 0.1 µM): 2.08%
- viability, T/C (second compound 0.3 µM, first compound 0.316 µM): 1.55%
- viability, T/C (second compound 0.3 µM, first compound 1 µM): 0.71%
- viability, T/C (second compound 0.3 µM, first compound 3.16 µM): 0.65%
- viability, T/C (second compound 0.3 µM, first compound 10 µM): 0.78%

SMILES: Cn1ncnc1[C@H]1c2n[nH]c(=O)c3cc(F)cc(c23)N[C@@H]1c1ccc(F)cc1 + COc1cc2c(cc1O)CCNC21CSC2c3c(OC(C)=O)c(C)c4c(c3C(COC1=O)N1C(O)C3Cc5cc(C)c(OC)c(O)c5C(C21)N3C)OCO4
- IC50 (second compound 30 pM): 514 nM
- IC50 (second compound 94.9 pM): 252 nM
- IC50 (second compound 0.0003 µM): < 9.49 nM
- IC50 (second compound 0.000949 µM): < 9.49 nM
- IC50 (second compound 0.003 µM): < 9.49 nM
- viability, T/C (second compound 30 pM, first compound 0.00949 µM): 94%
- viability, T/C (second compound 30 pM, first compound 0.03 µM): 91.6%
- viability, T/C [1]: 86.4%
- viability, T/C [2]: 71.3%
- viability, T/C [3]: 26.4%
- viability, T/C [4]: 1.05%
- viability, T/C (second compound 94.9 pM, first compound 0.00949 µM): 85.6%
- viability, T/C (second compound 94.9 pM, first compound 0.03 µM): 76.5%
- viability, T/C [5]: 66.1%
- viability, T/C [6]: 51.5%
- viability, T/C [7]: 11%
- viability, T/C [8]: 1.19%
- viability, T/C (second compound 0.0003 µM, first compound 0.00949 µM): 16.7%
- viability, T/C (second compound 0.0003 µM, first compound 0.03 µM): 9.8%
- viability, T/C [9]: 7.64%
- viability, T/C [10]: 2.97%
- viability, T/C [11]: 1.63%
- viability, T/C [12]: 1.27%
- viability, T/C (second compound 0.000949 µM, first compound 0.00949 µM): 3.02%
- viability, T/C (second compound 0.000949 µM, first compound 0.03 µM): 3.35%
- viability, T/C [13]: 2.75%
- viability, T/C [14]: 2.82%
- viability, T/C [15]: 2.18%
- viability, T/C [16]: 0.23%
- viability, T/C (second compound 0.003 µM, first compound 0.00949 µM): 0.11%
- viability, T/C (second compound 0.003 µM, first compound 0.03 µM): 0.12%
- viability, T/C [17]: 0.12%
- viability, T/C [18]: 0.1%
- viability, T/C [19]: 0.1%
- viability, T/C [20]: 0.19%

SMILES: O=C(c1cc(Cc2n[nH]c(=O)c3ccccc23)ccc1F)N1CCN(C(=O)C2CC2)CC1 + COc1cc2c(cc1O)CCNC21CSC2c3c(OC(C)=O)c(C)c4c(c3C(COC1=O)N1C(O)C3Cc5cc(C)c(OC)c(O)c5C(C21)N3C)OCO4
- IC50 (second compound 30 pM): 4580 nM
- IC50 (second compound 94.9 pM): 3050 nM
- IC50 (second compound 0.0003 µM): < 94.9 nM
- IC50 (second compound 0.000949 µM): < 94.9 nM
- IC50 (second compound 0.003 µM): < 94.9 nM
- viability, T/C [1]: 107%
- viability, T/C [2]: 105%
- viability, T/C [3]: 101%
- viability, T/C [4]: 77%
- viability, T/C (second compound 30 pM, first compound 9.49 µM): 3.12%
- viability, T/C (second compound 30 pM, first compound 30 µM): 1.74%
- viability, T/C [5]: 97.5%
- viability, T/C [6]: 97.8%
- viability, T/C [7]: 87.4%
- viability, T/C [8]: 52.1%
- viability, T/C (second compound 94.9 pM, first compound 9.49 µM): 1.93%
- viability, T/C (second compound 94.9 pM, first compound 30 µM): 1.27%
- viability, T/C [9]: 27.4%
- viability, T/C [10]: 22.1%
- viability, T/C [11]: 18.2%
- viability, T/C [12]: 2.51%
- viability, T/C (second compound 0.0003 µM, first compound 9.49 µM): 1.17%
- viability, T/C (second compound 0.0003 µM, first compound 30 µM): 0.76%
- viability, T/C [13]: 3.77%
- viability, T/C [14]: 4.04%
- viability, T/C [15]: 2.93%
- viability, T/C [16]: 0.82%
- viability, T/C (second compound 0.000949 µM, first compound 9.49 µM): 0.32%
- viability, T/C (second compound 0.000949 µM, first compound 30 µM): 0.11%
- viability, T/C [17]: 7.31%
- viability, T/C [18]: 0.2%
- viability, T/C [19]: 0.13%
- viability, T/C [20]: 0.12%
- viability, T/C (second compound 0.003 µM, first compound 9.49 µM): 0.14%
- viability, T/C (second compound 0.003 µM, first compound 30 µM): 0.29%
